In paper PMC10799292, “The Role of β-Defensin 1 Against Porphyromonas gingivalis Lipopolysaccharide-Mediated Inflammation in the THP-1 Cell Line” (Cureus, 2023):
No end group written: not given here.

Experiments:
[1] = tested on: Pg-LPS stimulated THP-1 cells; test: Cytotoxic evaluation of β-defensin 1 against Pg-LPS-treated THP-1 cells (MTT); type: cell-based, human; settings: β-defensin 1 at 260.85 ng/mL, 24 h, triplicates
Procedure: The THP-1 cell line was cultured in DMEM and supplemented with 10% FBS, sodium bicarbonate, L-glutamine, and an antibiotic solution containing penicillin (100 U/mL), amphotericin B (2.5 µg/mL), and streptomycin (100 µg/mL). The cells were maintained in a 5% humidified CO2 incubator (NBS Eppendorf, Germany) at 37°C. To induce differentiation into macrophages, the THP-1 cell line was treated with 25 ng/mL phorbol 12-myristate 13-acetate (PMA) (cat. 91585, Sigma-Aldrich, USA) and incubated for 48 hours. Following incubation, the cells were seeded in a 96-well culture plate at a density of 5x10^4 cells/well and incubated for 24 hours in a humidified 5% CO2 incubator at 37°C.
Inverted phase contrast microscopy (IPCM) using an Olympus CKX41 microscope (Olympus, Japan) equipped with an Optika Pro5 CCD camera (Optika, Italy) was utilized to directly observe the cells. Cell viability was determined using the MTT (3-(4,5-Dimethylthiazol-2-yl)-2,5-diphenyltetrazolium bromide) assay (Sigma, M-5655). […] The absorbance of this colored solution can be quantified by measuring at approximately 570 nm using a spectrophotometer.
The whole plate was analyzed under a microscope with an IPCM, and the results were photographed. […] The purple formazan crystals were dissolved in dimethyl sulfoxide (DMSO) and the absorbance (OD) was measured at 570 nm using a microplate reader. […]

[2] = tested on: MPO; test: Myeloperoxidase (MPO) activity in lysate of Pg-LPS stimulated THP-1 cells; type: cell-based, human; settings: for MPO Enzyme activity Average / MPO Enzyme activity 1 / MPO Enzyme activity 2: Pg-LPS 1 µg/mL, 24 h; for MPO Enzyme activity Average: mean of duplicates; for MPO Enzyme activity 1: replicate 1; for MPO Enzyme activity 2: replicate 2
Procedure: For inducing differentiation of THP-1 cells into macrophages, the cell line was premixed with 25 ng/mL PMA and incubated for 48 hours. After incubation, 5x10^4 cells were activated with Pg-LPS (LPS: 1 µg/mL) for one hour. Pg-LPS stimulated cells were exposed to different concentrations (6.25, 12.5, and 25 ng/mL) of β-defensin 1 and incubated for 24 hours. After incubation, the following anti-inflammatory assays were conducted utilizing the cell lysate.
Cell lysate was homogenized in hexadecyltrimethyl ammonium bromide (HTAB) and potassium phosphate buffer. The samples were centrifuged at 2000g for 30 minutes at 4°C and the activity of myeloperoxidase (MPO) enzyme was measured with the supernatant. MPO in the sample was stimulated by adding 50 mM phosphate buffer (pH 6) containing 1.67 mg/mL guaiacol and 0.0005% hydrogen peroxide. The absorbance change at […] was determined. The MPO activity (U) was shown as units per milliliter of cell lysate. At 25 °C, one unit of MPO activity corresponds to the degradation of 1µM peroxide per minute.
where ΔOD is the density change, Vt is the total volume (mL) (1.1 mL ), L is the light path (1 cm), and £470 is the extinction coefficient for tetraguaiacol (26.6 mM^-1·cm^-1).

[3] = tested on: THP-1 cells; test: Intracellular ROS generation, DCFDA assay; type: cell-based, human; settings: β-defensin 1 22.62 ng/mL 24 h after Pg-LPS 1 µg/mL 1 h; DCFDA 30 min, ex 470 nm, em 635 nm; untreated control 2379
Procedure: Untreated control and Pg-LPS treated wells were also maintained. The cells were washed with PBS, and 50 µl of Dichlorodihydrofluorescein diacetate (DCFDA) was added, followed by incubation for 30 minutes. After incubation, excess dye was removed with PBS, and fluorescence was observed using a fluorescent microscope (Olympus CKX41 with Optika Pro5 CCD camera) and quantified with a fluorimeter at 470 nm excitation and emission at […] (Qubit 3.0, Life Technologies, USA), displaying the results in arbitrary units (AU).
The effect of β-defensin 1 on ROS generation in THP-1 cells stimulated with Pg-LPS was studied. DCFDA, a fluorogenic dye, measures hydroxyl, peroxyl, and other ROS activities within the cell. After entering the cell, DCFDA is deacetylated by cellular esterases into a non-fluorescent compound. This nonfluorescent chemical is then oxidized by ROS into […] (DCF), which, upon excitation with a blue filter, emits green fluorescence. When THP-1 cells were stimulated with Pg-LPS, there was a considerable increase in fluorescence, which decreased upon treatment with β-defensin 1, as shown in Figure 7 and Table 2.

[4] = tested on: THP-1 cells; test: Cell cycle distribution by flow cytometry; type: cell-based, human; settings: co-treated with β-defensin 1, Pg-LPS stimulated
Procedure: Untreated control and Pg-LPS stimulated cells were also maintained. The MUSE Cell Cycle Kit was added, and the manufacturer's instructions were followed.

[5] = molecular docking; cited from earlier work
From the text: Two important functions of macrophages are to eliminate pathogens through phagocytosis and apoptosis of inflammatory cells and their subsequent clearance (efferocytosis). The present study analyzed the role of AMP, β-defensin 1, in Pg-LPS-stimulated THP-1 differentiated macrophage cells.

Substance: β-defensin 1: β-Defensin 1 peptide was purchased from ThermoFisher Scientific, USA; cationic antimicrobial peptide (DHYNCVSSGGQCLYSACPIFTKIQGTCYRGKAKCCK; ends and bridges not checked; cysteine pairing not given here; UniProt P60022 33-68, looked up)
- viability (in words) ([1]; Pg-LPS (1 h) up to 1 µg/mL): increased the viability of THP-1 cells
- viability (in words) ([1]; Pg-LPS beyond 1 µg/mL): decrease in viability
- MPO Enzyme activity Average ([2]; 6.25 ng/mL): 0.02795 U/mL
- MPO Enzyme activity 1 ([2]; 6.25 ng/mL): 0.0278 U/mL
- MPO Enzyme activity 2 ([2]; 6.25 ng/mL): 0.0281 U/mL
- MPO Enzyme activity Average ([2]; 12.5 ng/mL): 0.021 U/mL
- MPO Enzyme activity 1 ([2]; 12.5 ng/mL): 0.0209 U/mL
- MPO Enzyme activity 2 ([2]; 12.5 ng/mL): 0.0211 U/mL
- MPO Enzyme activity Average ([2]; 25 ng/mL): 0.01515 U/mL
- MPO Enzyme activity 1 ([2]; 25 ng/mL): 0.0152 U/mL
- MPO Enzyme activity 2 ([2]; 25 ng/mL): 0.0151 U/mL
- MPO enzyme activity (in words) ([2]; 6.25, 12.5, and 25 ng/mL, Pg-LPS stimulated): decreased in a concentration-dependent manner
- ROS generation, Fluorescence intensity [3]: 5006.24 AU
- arrest in the G0/G1 phase (in words) [4]: reduced
- binding affinity with Pg-LPS (docking) [5]: good binding affinity with Pg-LPS
